Like-named read-outs stand apart in the source and are kept apart here.
How the values were obtained:
Assay type in all cases: biochemical
KDM2B (FBXL10) = biological target: T1, KDM2B (FBXL10) (Homo sapiens, UniProt Q8NHM5); assay: Histone lysine demethylase AlphaLISA assay, KDM2B
T1 construct: KDM2B; BPS,; 1-650; Bac; purchased BPS Bioscience, US; host or cells: baculovirus system
T1 sequence (Q8NHM5 1-650): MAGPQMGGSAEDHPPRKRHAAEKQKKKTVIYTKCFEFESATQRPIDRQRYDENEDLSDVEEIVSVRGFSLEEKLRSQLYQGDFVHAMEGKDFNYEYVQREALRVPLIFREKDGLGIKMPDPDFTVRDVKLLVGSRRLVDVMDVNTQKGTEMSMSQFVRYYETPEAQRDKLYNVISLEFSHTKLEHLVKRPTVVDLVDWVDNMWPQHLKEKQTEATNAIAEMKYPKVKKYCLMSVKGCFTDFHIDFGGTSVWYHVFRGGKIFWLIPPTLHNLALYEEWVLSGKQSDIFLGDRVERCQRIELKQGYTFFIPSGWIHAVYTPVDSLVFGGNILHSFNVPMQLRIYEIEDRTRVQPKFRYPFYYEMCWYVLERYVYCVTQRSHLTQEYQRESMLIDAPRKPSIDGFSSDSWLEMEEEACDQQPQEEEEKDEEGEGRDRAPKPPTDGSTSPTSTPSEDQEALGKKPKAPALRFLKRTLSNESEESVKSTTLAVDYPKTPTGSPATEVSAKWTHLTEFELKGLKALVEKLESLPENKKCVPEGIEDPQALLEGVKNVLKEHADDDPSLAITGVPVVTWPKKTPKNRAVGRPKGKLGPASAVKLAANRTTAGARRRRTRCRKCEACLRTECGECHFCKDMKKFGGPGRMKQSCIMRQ
Procedure, shortened: (§1)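 Buffer: 50 mM Hepes pH 7.4-8.0, Tween-20, 0.1% BSA, 5 μM ammonium iron(II) sulfate. Enzyme + compound (DMSO) 10 min, then substrate at RT; acceptor and streptavidin donor beads added, dark incubation, AlphaLISA read.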

KDM4C (JMJD2C) = biological target: T2, KDM4C (JMJD2C) (Homo sapiens, UniProt Q9H3R0); assay: Histone lysine demethylase AlphaLISA assay, KDM4C
T2 construct: KDM4C; BRIC, Denmark; 1-349; E. coli; host or cells: E. coli
T2 sequence (Q9H3R0 1-349): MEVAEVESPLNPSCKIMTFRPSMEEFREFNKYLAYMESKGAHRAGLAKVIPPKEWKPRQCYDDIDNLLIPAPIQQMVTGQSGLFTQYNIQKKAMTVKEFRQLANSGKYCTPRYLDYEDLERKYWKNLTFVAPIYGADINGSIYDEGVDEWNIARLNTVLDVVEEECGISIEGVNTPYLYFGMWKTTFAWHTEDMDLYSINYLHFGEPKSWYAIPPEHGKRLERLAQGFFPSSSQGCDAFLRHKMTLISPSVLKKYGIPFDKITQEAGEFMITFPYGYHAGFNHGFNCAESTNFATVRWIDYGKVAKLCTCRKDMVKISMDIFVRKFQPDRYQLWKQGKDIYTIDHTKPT
Procedure, shortened: as §1

KDM6A (UTX) = biological target: T3, KDM6A (UTX) (Homo sapiens, UniProt O15550); assay: Histone lysine demethylase AlphaLISA assay, KDM6A
T3 construct: KDM6A (UTX); BRIC; 919-1401; E. coli; host or cells: E. coli
T3 sequence (O15550 919-1401): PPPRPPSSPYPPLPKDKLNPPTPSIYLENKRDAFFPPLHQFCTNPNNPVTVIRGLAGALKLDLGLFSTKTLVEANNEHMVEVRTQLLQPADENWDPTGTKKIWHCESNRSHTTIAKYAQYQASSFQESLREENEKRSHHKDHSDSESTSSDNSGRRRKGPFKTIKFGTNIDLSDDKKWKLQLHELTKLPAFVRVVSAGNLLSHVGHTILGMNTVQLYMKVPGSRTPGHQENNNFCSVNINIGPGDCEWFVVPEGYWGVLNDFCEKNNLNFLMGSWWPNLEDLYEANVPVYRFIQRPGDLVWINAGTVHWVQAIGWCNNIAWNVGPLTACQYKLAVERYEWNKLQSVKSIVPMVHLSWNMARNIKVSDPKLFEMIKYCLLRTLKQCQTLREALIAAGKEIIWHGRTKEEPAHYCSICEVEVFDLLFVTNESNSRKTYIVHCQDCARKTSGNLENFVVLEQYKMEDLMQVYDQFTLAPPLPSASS
Method: The compounds of the application, or a pharmaceutically acceptable salt, or solvate, or prodrug thereof, are tested in an in vitro AlphaLISA assay. Enzymes are dissolved in enzyme buffer and incubated before they are added to DMSO solutions of compounds of the application, or a pharmaceutically acceptable salt, or solvate, or prodrug thereof, in enzyme buffer. The reaction mixture is then incubated for an additional period of time before substrate solution is added and then the resulting mixture again incubated. Acceptor beads and suspended Epigenetic Buffer from stock are added and the suspension is again incubated before a suspension of streptavidin donor beads in Epigenetic Buffer is added. After an additional period of incubation, the plates are read.
The ability of compounds of the application to inhibit the histone lysine demethylase activity in vitro of different enzymes was determined.
The reaction mixture was incubated for another 10 minutes before 5 μL of substrate solution was added and the resulting mixture was then incubated at room temperature. […] After incubation at room temperature in the dark, the plates were read.
Enzyme Buffer: 50 mM Hepes (pH 7.4-8.0), 0.003-0.01% Tween-20, 0.1% BSA; 5 μM (NH4)2Fe(SO4)2.

KDM5B (PLU-1) = biological target: T4, KDM5B (PLU-1) (Homo sapiens, UniProt Q9UGL1); assay: Histone lysine demethylase AlphaLISA assay, KDM5B
T4 construct: BRIC; 1-809; E. coli; host or cells: E. coli
T4 sequence (Q9UGL1 1-809): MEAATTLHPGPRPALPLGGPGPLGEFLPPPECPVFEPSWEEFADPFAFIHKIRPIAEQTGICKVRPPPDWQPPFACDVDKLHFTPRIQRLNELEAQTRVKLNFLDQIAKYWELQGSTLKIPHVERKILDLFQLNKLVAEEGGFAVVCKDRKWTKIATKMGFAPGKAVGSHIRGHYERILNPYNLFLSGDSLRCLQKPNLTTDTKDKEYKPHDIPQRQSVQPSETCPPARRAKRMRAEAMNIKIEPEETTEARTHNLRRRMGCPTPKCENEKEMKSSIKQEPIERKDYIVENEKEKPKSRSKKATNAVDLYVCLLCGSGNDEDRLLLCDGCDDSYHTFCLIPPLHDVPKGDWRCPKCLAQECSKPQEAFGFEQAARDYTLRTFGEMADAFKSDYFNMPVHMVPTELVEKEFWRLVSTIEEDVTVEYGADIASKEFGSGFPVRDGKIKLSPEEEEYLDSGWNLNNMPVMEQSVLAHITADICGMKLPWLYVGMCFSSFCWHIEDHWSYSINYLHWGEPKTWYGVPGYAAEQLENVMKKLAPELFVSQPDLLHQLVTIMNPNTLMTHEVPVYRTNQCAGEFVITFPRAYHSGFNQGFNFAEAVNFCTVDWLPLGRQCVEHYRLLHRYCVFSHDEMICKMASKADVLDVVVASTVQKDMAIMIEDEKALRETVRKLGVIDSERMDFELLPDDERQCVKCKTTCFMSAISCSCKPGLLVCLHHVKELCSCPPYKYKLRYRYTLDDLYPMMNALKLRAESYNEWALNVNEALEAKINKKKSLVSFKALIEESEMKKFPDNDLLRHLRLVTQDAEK
Procedure, shortened: as §1

PHF8 (KDM7) = biological target: T5, PHF8 (KDM7) (Homo sapiens, UniProt Q9UPP1); assay: Histone lysine demethylase AlphaLISA assay, PHF8
T5 construct: KDM7 (PHF8); BRIC; 1-1322; Bac
T5 sequence (Q9UPP1 37-440 limits assumed): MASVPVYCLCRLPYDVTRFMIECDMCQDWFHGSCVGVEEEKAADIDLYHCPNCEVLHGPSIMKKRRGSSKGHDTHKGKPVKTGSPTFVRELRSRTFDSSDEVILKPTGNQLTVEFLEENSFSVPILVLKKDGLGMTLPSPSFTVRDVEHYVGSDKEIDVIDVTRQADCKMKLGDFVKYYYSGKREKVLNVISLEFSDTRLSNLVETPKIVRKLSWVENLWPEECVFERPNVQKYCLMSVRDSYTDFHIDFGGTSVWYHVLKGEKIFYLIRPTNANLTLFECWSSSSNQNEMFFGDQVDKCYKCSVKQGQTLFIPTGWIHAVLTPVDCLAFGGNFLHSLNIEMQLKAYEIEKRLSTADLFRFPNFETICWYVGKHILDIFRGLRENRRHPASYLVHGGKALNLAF
Procedure, shortened: as §1

[1] = AlphaLISA, in vitro, read-out: HDME Inhibition KDM2B
[2] = AlphaLISA assay, read-out: HDME Inhibition KDM4C (IC50)
[3] = AlphaLISA, in vitro, read-out: HDME Inhibition KDM4C
[4] = AlphaLISA assay, read-out: HDME Inhibition KDM6A (IC50)
[5] = AlphaLISA, in vitro, read-out: HDME Inhibition KDM6A
[6] = AlphaLISA assay, read-out: HDME Inhibition KDM5B (IC50)
[7] = AlphaLISA, in vitro, read-out: HDME Inhibition KDM5B
[8] = AlphaLISA assay, read-out: HDME Inhibition PHF8 (IC50)
[9] = AlphaLISA, in vitro, read-out: HDME Inhibition PHF8
[10] = AlphaLISA assay, read-out: HDME Inhibition KDM2B (IC50)

| IC50 (KDM2B (FBXL10); [1]) | IC50 (KDM4C (JMJD2C); [2]) | IC50 (KDM4C (JMJD2C); [3]) | IC50 (KDM6A (UTX); [4]) | IC50 (KDM6A (UTX); [5]) | IC50 (KDM5B (PLU-1); [6]) | IC50 (KDM5B (PLU-1); [7]) | IC50 (PHF8 (KDM7); [8]) | IC50 (PHF8 (KDM7); [9]) | IC50 (KDM5B (PLU-1)) | IC50 (KDM2B (FBXL10); [10]) | SMILES |
| --- | --- | --- | --- | --- | --- | --- | --- | --- | --- | --- | --- |
| 2940 nM | > 10 µM | > 10 µM | > 10 µM | > 10 µM | > 10 µM | > 10 µM | > 10 µM | > 10 µM | – | – | COCc1cc(C(=O)O)cc(CNCc2nccn2Cc2ccc(F)cc2)n1 [Compound 2, 2-{[({1-[(4-fluorophenyl)methyl]-1H-imidazol-2-yl}methyl)amino]methyl}-6-(methoxymethyl)pyridine-4-carboxylic acid] |
| 5430 nM | > 10 µM | > 10 µM | > 10 µM | > 10 µM | > 10 µM | > 10 µM | > 10 µM | > 10 µM | – | – | Cc1cc(C(=O)O)cc(CNCCc2ncccc2CCC(C)C)n1 [Compound 20, 2-methyl-6-[({2-[3-(3-methylbutyl)pyridin-2-yl]ethyl}amino)methyl]pyridine-4-carboxylic acid] |
| 708 nM | > 10 µM | > 10 µM | > 10 µM | > 10 µM | – | – | – | 0.353 µM | 3.35 µM | – | CC#Cc1cc(C(=O)O)cc(CNCc2nccn2Cc2ccc(F)cc2)n1 [Compound 6, 2-{[({1-[(4-fluorophenyl)methyl]-1H-imidazol-2-yl}methyl)amino]methyl}-6-(prop-1-yn-1-yl)pyridine-4-carboxylic acid] |
| 2270 nM | > 10 µM | > 10 µM | > 10 µM | > 10 µM | > 10 µM | > 10 µM | – | 5.78 µM | – | – | CCc1cc(C(=O)O)cc(CNCc2nccn2Cc2ccc(F)cc2)n1 [Compound 13, 2-ethyl-6-{[({1-[(4-fluorophenyl)methyl]-1H-imidazol-2-yl}methyl)amino]methyl}pyridine-4-carboxylic acid] |
| 565 nM | > 10 µM | > 10 µM | > 10 µM | > 10 µM | – | – | – | 1.03 µM | 3.02 µM | – | Cc1cc(C(=O)O)cc(CNCc2nccn2CCc2cncnc2)n1 [Compound 26, 2-methyl-6-{[({1-[2-(pyrimidin-5-yl)ethyl]-1H-imidazol-2-yl}methyl)amino]methyl}pyridine-4-carboxylic acid] |
| 158 nM | > 10 µM | > 10 µM | > 10 µM | > 10 µM | > 10 µM | > 10 µM | – | 0.537 µM | – | – | CCc1nnc(CNCc2cc(C(=O)O)cc(C)n2)n1Cc1ccc(F)cc1 [Compound 27, 2-{[({5-Ethyl-4-[(4-fluorophenyl)methyl]-4H-1,2,4-triazol-3-yl}methyl)amino]methyl}-6-methylpyridine-4-carboxylic acid] |
| > 6800 nM | > 10 µM | > 10 µM | > 9 µM | > 9 µM | > 10 µM | > 10 µM | – | 3.49 µM | – | > 6800 nM | CCCCCc1cccnc1CCNCc1cc(C(=O)O)cc(C)n1 [Compound 16, 2-methyl-6-({[2-(3-pentylpyridin-2-yl)ethyl]amino}methyl)pyridine-4-carboxylic acid] |
| 5350 nM | > 10 µM | > 10 µM | > 10 µM | > 10 µM | > 10 µM | > 10 µM | > 10 µM | > 10 µM | – | – | CCCCCCCc1cccnc1CCNCc1cc(C(=O)O)cc(C)n1 [Compound 21, 2-({[2-(3-heptylpyridin-2-yl)ethyl]amino}methyl)-6-methylpyridine-4-carboxylic acid] |
| 2290 nM | > 10 µM | > 10 µM | > 10 µM | > 10 µM | – | – | > 10 µM | > 10 µM | 4.62 µM | – | Cc1cc(C(=O)O)cc(CNCc2nnc(C3CC3)n2Cc2ccc(F)cc2)n1 [Compound 38, 2-{[({5-cyclopropyl-4-[(4-fluorophenyl)methyl]-4H-1,2,4-triazol-3-yl}methyl)amino]methyl}-6-methylpyridine-4-carboxylic acid] |
| 1600 nM | > 10 µM | > 10 µM | > 10 µM | > 10 µM | > 10 µM | > 10 µM | – | 3.76 µM | – | – | C/C=C/c1cc(C(=O)O)cc(CNCc2nccn2Cc2ccc(F)cc2)n1 [Compound 5, 2-{[({1-[(4-fluorophenyl)methyl]-1H-imidazol-2-yl}methyl)amino]methyl}-6-[(1E)-prop-1-en-1-yl]pyridine-4-carboxylic acid] |
| > 10000 nM | > 10 µM | > 10 µM | > 10 µM | > 10 µM | > 10 µM | > 10 µM | > 10 µM | > 10 µM | – | > 10000 nM | Cc1cc(C(=O)O)cc(CN[C@H](CO)CC(C)C)n1 [Compound 23, 2-({[(2S)-1-hydroxy-4-methylpentan-2-yl]amino}methyl)-6-methylpyridine-4-carboxylic acid] |
| 462 nM | > 10 µM | > 10 µM | > 10 µM | > 10 µM | > 10 µM | > 10 µM | – | 1.06 µM | – | – | Cc1cc(C(=O)O)cc(CNCc2ncc(CCc3ccccc3)n2Cc2ccc(F)cc2)n1 [Compound 28, 2-{[({1-[(4-fluorophenyl)methyl]-5-(2-phenylethyl)-1H-imidazol-2-yl}methyl)amino]methyl}-6-methylpyridine-4-carboxylic acid] |
